We go through two compounds from article PMC4904262 (ACS Medicinal Chemistry Letters, 2016).

One may read the microsomal CLint as a measure of how fast metabolising enzymes remove a compound, apart from limits set by blood flow. The Vd is the apparent volume that relates the amount in the body to the concentration in plasma or blood. A lower Vd goes with confinement near the circulation. What is called clearance is a measure of how efficiently the substance is removed, as volume per time. The bioavailability is the share of a dose that reaches the circulation, judged against a reference dose that is usually intravenous. Low readings indicate little systemic uptake, high ones much systemic uptake.

For data set [1] the following is noted: mouse, in vivo, iv, 0.2 mg/kg.
Data set [2] concerns the target aldehyde oxidase (Homo sapiens, UniProt Q06278).
A short description of data set [3]: in vitro. The note with it: rat, microsomes.
In data set [4] the target is P70S6K (Homo sapiens, UniProt P23443). The conditions noted are these: 1 µM, ATP at Km.
A short description of data set [5]: in vitro. The conditions noted are these: mouse, microsomes.
Data set [6] addresses CDK9/CYCLINT1 (Homo sapiens, UniProt P50750). The note with it: 1 µM, ATP at Km.
Data set [7] can be described thus: in vitro. The conditions noted are these: human, microsomes.
Data set [8] concerns phospho-STAT1^SER727. The note with it: single 5 mg/kg po dose; SW620 xenograft.
Data set [9] has as its target MAPKAP-K2 (Homo sapiens, UniProt P49137). The conditions noted are these: 1 µM, ATP at Km.
Data set [10] in a line: in vivo. The conditions noted are these: rat.
The conditions of data set [11]: rat, in vivo, 0.2 mg/kg.
Data set [12] deals with FGFR1(V561M) (Homo sapiens, UniProt P11362, V561M). The note with it: 1 µM, ATP at Km.
Data set [13] has as its target cMET (Y1248D) (Homo sapiens, UniProt P08581, Y1230D). The conditions noted are these: 1 µM, ATP at Km.
For data set [14], the target named is SAPK2A(T106M) (Homo sapiens, UniProt Q16539, T106M). The note with it: 1 µM, ATP at Km.
The target of data set [15] is CKIT(D816H) (Homo sapiens, UniProt P10721, D816H). The conditions noted are these: 1 µM, ATP at Km.
The target of data set [16] is PI3 KINASE (H1047R/P85A) (Homo sapiens, UniProt P42336, H1047R). The conditions noted are these: 1 µM, ATP at Km.
Data set [17] concerns the target MKK4 (Mus musculus, UniProt P47809). The note with it: 1 µM, ATP at Km.
Data set [18] concerns the target ABL (H396P) (Homo sapiens, UniProt P00519, H396P). The conditions noted are these: 1 µM, ATP at Km.
Data set [19] concerns the target CKIT(V654A) (Homo sapiens, UniProt P10721, V654A). The note with it: 1 µM, ATP at Km.
For data set [20], the target named is EGFR(L861Q) (Homo sapiens, UniProt P00533, L861Q). The note with it: 1 µM, ATP at Km.
For data set [21], the target named is ABL(T315I) (Homo sapiens, UniProt P00519, T315I). The conditions noted are these: 1 µM, ATP at Km.
For data set [22], the target named is ABL (M351T) (Homo sapiens, UniProt P00519, M351T). The conditions noted are these: 1 µM, ATP at Km.
Data set [23] concerns the target RET(V804M) (Homo sapiens, UniProt P07949, V804M). The note with it: 1 µM, ATP at Km.
For data set [24], the target named is FMS(Y969C) (Homo sapiens, UniProt P07333, Y969C). The conditions noted are these: 1 µM, ATP at Km.
Data set [25] has as its target ABL (Q252H) (Homo sapiens, UniProt P00519, Q252H). The conditions noted are these: 1 µM, ATP at Km.
The target of data set [26] is cMET (D1246H) (Homo sapiens, UniProt P08581, D1228H). The conditions noted are these: 1 µM, ATP at Km.
The target of data set [27] is LCK (Homo sapiens, UniProt P06239). The conditions noted are these: LCK (second listing, page 11); 1 µM; ATP at Km.
For data set [28], the target named is TIE2(R849W) (Homo sapiens, UniProt Q02763, R849W). The note with it: 1 µM, ATP at Km.
In data set [29] the target is cMET (D1246N) (Homo sapiens, UniProt P08581, D1228N). The note with it: 1 µM, ATP at Km.
Data set [30] concerns the target cMET (M1268T) (Homo sapiens, UniProt P08581, M1250T). The conditions noted are these: 1 µM, ATP at Km.

Like-named read-outs stand apart in the source and are kept apart here.

Sequence of CKIT(D816H) (P10721 26-976 D816H): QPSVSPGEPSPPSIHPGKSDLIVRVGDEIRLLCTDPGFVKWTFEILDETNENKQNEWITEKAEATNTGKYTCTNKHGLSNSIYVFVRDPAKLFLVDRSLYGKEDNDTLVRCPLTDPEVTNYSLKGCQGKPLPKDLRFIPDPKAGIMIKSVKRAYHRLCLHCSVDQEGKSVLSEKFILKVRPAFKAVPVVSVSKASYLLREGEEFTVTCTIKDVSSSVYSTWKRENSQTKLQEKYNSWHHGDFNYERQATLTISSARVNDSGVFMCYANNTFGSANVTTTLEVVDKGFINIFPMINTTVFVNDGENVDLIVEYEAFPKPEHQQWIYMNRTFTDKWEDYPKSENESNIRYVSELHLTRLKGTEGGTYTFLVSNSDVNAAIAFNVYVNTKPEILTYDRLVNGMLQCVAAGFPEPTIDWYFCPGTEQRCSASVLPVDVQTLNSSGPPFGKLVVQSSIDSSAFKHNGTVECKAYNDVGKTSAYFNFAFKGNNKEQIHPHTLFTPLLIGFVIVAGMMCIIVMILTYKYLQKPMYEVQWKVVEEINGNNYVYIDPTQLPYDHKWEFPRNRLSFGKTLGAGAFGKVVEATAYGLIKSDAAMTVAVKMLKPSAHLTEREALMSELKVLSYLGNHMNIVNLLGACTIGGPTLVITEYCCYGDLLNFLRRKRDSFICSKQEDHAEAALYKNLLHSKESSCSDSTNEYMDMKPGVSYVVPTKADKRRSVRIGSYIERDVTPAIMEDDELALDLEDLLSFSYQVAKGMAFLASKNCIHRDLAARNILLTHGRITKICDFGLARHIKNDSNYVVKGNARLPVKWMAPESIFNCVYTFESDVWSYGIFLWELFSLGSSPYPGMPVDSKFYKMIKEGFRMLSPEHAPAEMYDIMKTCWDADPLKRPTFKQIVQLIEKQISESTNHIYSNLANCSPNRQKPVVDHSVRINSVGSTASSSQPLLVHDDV
Sequence of LCK (P06239 whole entry): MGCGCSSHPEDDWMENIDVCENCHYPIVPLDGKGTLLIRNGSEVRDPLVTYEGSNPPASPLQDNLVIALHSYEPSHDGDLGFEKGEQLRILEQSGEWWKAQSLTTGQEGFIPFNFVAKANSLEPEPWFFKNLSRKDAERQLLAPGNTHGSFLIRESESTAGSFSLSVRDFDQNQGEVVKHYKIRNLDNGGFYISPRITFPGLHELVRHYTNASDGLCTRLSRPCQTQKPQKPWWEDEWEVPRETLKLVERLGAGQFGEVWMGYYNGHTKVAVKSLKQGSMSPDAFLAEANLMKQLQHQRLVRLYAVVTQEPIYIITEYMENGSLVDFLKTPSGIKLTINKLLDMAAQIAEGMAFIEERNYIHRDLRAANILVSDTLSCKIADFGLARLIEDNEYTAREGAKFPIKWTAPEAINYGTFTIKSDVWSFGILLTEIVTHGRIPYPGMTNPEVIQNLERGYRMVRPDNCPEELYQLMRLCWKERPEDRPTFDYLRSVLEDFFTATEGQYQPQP
Sequence of TIE2(R849W) (Q02763 23-1124 R849W): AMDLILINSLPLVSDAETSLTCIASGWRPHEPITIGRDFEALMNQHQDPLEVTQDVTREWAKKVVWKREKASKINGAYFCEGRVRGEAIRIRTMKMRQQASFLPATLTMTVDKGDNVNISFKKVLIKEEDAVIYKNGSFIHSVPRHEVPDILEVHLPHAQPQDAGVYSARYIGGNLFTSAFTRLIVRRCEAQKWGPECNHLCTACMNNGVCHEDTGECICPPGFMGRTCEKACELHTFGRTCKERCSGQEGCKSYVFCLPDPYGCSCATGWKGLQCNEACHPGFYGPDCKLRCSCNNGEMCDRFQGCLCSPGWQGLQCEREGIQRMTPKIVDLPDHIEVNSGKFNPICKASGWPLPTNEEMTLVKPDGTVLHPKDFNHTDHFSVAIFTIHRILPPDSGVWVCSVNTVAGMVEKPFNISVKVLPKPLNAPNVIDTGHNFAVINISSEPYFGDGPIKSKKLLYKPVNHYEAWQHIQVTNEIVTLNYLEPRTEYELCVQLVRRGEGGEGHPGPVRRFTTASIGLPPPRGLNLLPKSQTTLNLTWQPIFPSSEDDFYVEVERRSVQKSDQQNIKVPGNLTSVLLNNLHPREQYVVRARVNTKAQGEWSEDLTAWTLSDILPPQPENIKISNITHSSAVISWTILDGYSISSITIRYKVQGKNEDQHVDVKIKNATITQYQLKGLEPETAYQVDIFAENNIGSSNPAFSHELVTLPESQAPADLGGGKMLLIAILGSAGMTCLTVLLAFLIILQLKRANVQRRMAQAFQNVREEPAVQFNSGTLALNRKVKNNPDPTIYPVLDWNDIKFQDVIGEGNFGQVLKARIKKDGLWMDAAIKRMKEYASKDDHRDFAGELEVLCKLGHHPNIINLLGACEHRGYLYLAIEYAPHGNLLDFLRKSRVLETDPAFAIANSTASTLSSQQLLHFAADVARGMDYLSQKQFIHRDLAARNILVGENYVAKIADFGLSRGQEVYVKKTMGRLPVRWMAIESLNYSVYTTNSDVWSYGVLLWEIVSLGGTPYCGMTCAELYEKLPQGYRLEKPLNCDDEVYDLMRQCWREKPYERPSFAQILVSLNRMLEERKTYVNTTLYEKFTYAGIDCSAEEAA
Sequence of PI3 KINASE (H1047R/P85A) (P42336 whole entry H1047R): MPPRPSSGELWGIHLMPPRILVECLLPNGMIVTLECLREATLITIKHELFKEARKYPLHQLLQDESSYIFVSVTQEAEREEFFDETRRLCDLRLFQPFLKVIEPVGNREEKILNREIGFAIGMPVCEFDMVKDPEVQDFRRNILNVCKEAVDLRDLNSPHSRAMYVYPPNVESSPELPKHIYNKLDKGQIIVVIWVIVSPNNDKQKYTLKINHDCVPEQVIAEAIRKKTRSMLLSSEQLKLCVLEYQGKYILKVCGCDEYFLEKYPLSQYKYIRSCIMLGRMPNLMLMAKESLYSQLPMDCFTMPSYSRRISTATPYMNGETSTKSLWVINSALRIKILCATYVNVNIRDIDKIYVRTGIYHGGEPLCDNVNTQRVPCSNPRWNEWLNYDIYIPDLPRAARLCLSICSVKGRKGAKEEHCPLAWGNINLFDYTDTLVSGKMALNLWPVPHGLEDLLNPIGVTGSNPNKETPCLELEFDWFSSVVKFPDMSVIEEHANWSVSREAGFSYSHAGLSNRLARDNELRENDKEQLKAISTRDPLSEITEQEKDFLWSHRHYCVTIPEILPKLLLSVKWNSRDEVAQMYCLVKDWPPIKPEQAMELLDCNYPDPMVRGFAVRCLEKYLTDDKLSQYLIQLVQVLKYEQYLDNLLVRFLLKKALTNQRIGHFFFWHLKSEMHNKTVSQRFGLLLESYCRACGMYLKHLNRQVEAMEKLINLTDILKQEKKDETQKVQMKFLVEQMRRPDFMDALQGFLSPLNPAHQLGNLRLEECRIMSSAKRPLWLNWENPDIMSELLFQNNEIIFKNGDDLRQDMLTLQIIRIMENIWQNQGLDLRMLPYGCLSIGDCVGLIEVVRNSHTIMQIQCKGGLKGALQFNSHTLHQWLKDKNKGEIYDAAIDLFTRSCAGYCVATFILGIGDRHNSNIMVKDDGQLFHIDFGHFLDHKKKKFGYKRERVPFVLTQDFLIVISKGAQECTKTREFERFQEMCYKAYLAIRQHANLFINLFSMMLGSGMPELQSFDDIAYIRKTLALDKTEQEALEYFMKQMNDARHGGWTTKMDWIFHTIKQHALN
Sequence of PI3 KINASE (H1047R/P85A) (P27986 2-724 partner): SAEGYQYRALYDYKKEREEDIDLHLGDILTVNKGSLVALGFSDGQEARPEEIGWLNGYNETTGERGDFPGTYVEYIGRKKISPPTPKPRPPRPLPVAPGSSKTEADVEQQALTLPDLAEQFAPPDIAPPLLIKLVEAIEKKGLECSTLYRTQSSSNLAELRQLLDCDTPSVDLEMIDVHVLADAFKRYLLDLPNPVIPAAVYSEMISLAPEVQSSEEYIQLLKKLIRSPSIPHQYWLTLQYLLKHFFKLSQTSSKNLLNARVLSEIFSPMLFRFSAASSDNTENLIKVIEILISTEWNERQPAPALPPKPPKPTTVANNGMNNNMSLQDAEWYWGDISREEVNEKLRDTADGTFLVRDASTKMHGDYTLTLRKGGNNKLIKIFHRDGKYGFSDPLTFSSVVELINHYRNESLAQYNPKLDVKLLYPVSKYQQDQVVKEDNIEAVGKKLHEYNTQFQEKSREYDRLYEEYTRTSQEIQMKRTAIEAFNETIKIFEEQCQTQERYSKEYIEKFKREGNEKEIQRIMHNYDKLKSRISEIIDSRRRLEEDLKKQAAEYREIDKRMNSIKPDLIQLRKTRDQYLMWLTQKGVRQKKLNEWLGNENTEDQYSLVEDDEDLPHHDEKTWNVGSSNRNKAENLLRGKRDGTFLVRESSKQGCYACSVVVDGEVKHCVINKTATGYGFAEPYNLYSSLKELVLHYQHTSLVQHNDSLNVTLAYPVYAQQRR
Sequence of MKK4 (P47809 2-397 limits assumed): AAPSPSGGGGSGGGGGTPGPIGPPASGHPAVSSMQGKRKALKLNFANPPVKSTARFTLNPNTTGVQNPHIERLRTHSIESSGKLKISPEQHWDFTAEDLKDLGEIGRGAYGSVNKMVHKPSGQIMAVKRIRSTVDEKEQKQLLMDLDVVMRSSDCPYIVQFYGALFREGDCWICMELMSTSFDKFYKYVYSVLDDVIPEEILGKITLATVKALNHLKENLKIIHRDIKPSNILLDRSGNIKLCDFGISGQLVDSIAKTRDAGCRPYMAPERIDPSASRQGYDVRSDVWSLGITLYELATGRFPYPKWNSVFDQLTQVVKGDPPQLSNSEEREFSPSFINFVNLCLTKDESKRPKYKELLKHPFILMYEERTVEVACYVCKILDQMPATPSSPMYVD
Sequence of CKIT(V654A) (P10721 26-976 V654A): as the sequence (P10721 26-976 D816H) above, with V629A, H791D counted along it

Take `COC1CN(C(=O)c2ccc3c(N)ncc(-c4ccc(-c5cnn(C)c5)cc4)c3n2)C1` [Compound 51]: the “% in feces (iv dosing)” value in [1] turned out to be 31%; in data set [11], 36%. In data set [2], the “AO substrate (Enzyme assay)” value is reported as “No”. For the same compound, the microsomal CLint at 1 µM in data set [3] was 26 µL/min/mg; in [5], 52 µL/min/mg; in data set [7] it was 61 µL/min/mg. Moreover, the percentage effect in data set [4] is -25%; in data set [6], 8%; in [9], 6%. Moreover, the “inhibition of phospho-STAT1^SER727 in tumor xenograft” value in data set [8] is “time-dependent inhibition of phospho-STAT1^SER727”. The compound further gave a volume of distribution (Vd) in data set [10] (iv, 0.2 mg/kg) of 2.13 L/kg. Besides, in data set [10] (iv, 0.2 mg/kg), the clearance is 21.5 mL/min/kg. For the same compound, in data set [10] (po, 0.5 mg/kg), the bioavailability was 57%.

As for `COC1CN(C(=O)c2ccc3c(N)ncc(-c4ccc(-c5cnn(C)c5)cc4)c3c2)C1` [Compound 59], the percentage effect is -6% in [12]; 19% in [13]; 1% in [14]; -1% in data set [15]; -2% in data set [16]; 3% in data set [17]. The percentage effect in [18] is on record as 5%; in [19] it was 6%; in data set [20], -9%; in data set [21] it was 5%; in [22], 2%; in [23], 7%. Also, the percentage effect in data set [24] is -31%; in data set [25] it was 9%; in [26], 1%; in [27], 4%; in [28], -12%; in data set [29], 3%. Also, in [30], the percentage effect is listed as 5%.
